Results reported in ChEMBL document CHEMBL5247589, “Natural occurrence, bioactivity, and biosynthesis of triene-ansamycins” (Eur J Med Chem, 2022).
≈ marks a conversion by molar mass, not a printed value. One block for each compound: values may come before it.

Key:
HeLa [1] = experiment: Antitumor activity against human HeLa cells assessed as cell growth inhibition incubated for 72 hrs by MTT assay; format: functional, cell-based
HepG2 = experiment: Antitumor activity against human HepG2 incubated for 48 hrs by MTT assay; format: functional, cell-based; conditions: HepG2, 48 h
MCF7 = experiment: Antitumor activity against human MCF-7 incubated for 48 hrs by MTT assay; format: functional, cell-based; conditions: MCF7, 48 h
NCI-H1299 = experiment: Antiproliferative activity against human H1299 cells incubated for 72 hrs by absorbance based assay; format: functional, cell-based; conditions: NCI-H1299, 72 h
HeLa [2] = experiment: Antiproliferative activity against human HeLa cells incubated for 72 hrs by absorbance based assay; format: functional, cell-based
L5178Y = experiment: Cytotoxicity against mouse L5178Y; format: toxicity, cell-based
PC-3 = experiment: Antitumor activity against human PC-3 cells incubated for 72 hrs by SRB calorimetric assay; format: functional, cell-based; conditions: PC-3, 72 h
PANC-1 [3] = experiment: Antitumor activity against human PANC-1 cells incubated for 48 to 72 hrs by MTS Assay; format: functional, cell-based
Capan-2 = experiment: Antitumor activity against human Capan-2 cells incubated for 48 to 72 hrs by MTS Assay; format: functional, cell-based
BXPC-3 = experiment: Antitumor activity against human BXPC-3 cells incubated for 48 to 72 hrs by MTS Assay; format: functional, cell-based
PANC-1 [4] = experiment: Antitumor activity against human PANC-1 cells assessed as cell growth inhibition incubated for 48 hrs by CCK-8 assay; format: functional, cell-based; conditions: PANC-1, 48 h
SW1990 = experiment: Antitumor activity against human SW1990 cells assessed as cell growth inhibition incubated for 48 hrs by CCK-8 assay; format: functional, cell-based; conditions: SW1990, 48 h
PANC-1 [5] = experiment: Antitumor activity against human PANC-1; format: functional, cell-based; conditions: pooled result: one value given for 3 cell lines, strains, targets or settings

- IC50 (HepG2): > 10 µM
- IC50 (MCF7): > 10 µM
Compound: CO[C@H]1/C=C/C=C/C=C/C[C@H](OC(=O)[C@@H](C)NC(=O)C2CC2)[C@H](C)[C@@H](O)/C(C)=C\CCc2cc(O)cc(c2)NC(=O)C1

- IC50 (PC-3): 0.1 µM
- IC50 (PANC-1 [3]): 0.1 µM
- IC50 (BXPC-3): 0.1 µM
Compound: CO[C@H]1/C=C/C=C/C=C/C[C@H](OC(=O)[C@@H](C)NC(=O)CCCC(C)C)[C@H](C)[C@@H](O)/C(C)=C\CCc2cc(O)cc(c2)NC(=O)C1
- IC50 (Capan-2): 0.1 µM

- IC50 (PANC-1 [5]): 0.34 µM
Compound: CC[C@H](C)C(=O)N[C@H](C)C(=O)O[C@H]1C/C=C/C=C/C=C/[C@H](OC)CC(=O)Nc2cc(O)cc(c2)CC/C=C(/C)[C@H](O)[C@H]1C

- IC50 (HepG2): 6.74 µM
- IC50 (MCF7): 6.74 µM
Compound: CO[C@H]1/C=C/C=C/C=C/C[C@H](OC(=O)[C@@H](C)NC(=O)C2=CCCC2)[C@H](C)[C@@H](O)/C(C)=C\CCc2cc(O)cc(c2)NC(=O)C1

- IC50 (PANC-1 [5]): 0.035 µM
Compound: CO[C@H]1/C=C/C=C/C=C/C[C@H](OC(=O)[C@@H](C)NC(=O)C2=CCCCC2)[C@H](C)[C@@H](O)/C(C)=C\CCc2cc(O)cc(c2)NC(=O)C1

- IC50 (HeLa [1]): > 10 µM
Compound: C/C1=C/CCc2cc(O)cc(c2)NC(=O)C[C@@H](O)/C=C/C=C/C=C/C[C@H](O)C[C@H]1O

- IC50 (HeLa [1]): 0.86 µM
Compound: CO[C@H]1/C=C/C=C/C=C/C[C@H](OC(=O)[C@@H](C)NC(=O)C2CCCCC2)[C@H](C)[C@@H](O)/C=C\CCc2cc(O)cc(c2)NC(=O)C1

- IC50 (NCI-H1299): > 10 µM
- IC50 (HeLa [2]): 10 µM
Compound: C/C1=C/CCc2cc(O)cc(c2)NC(=O)C[C@@H](O)/C=C/C=C/C=C/C[C@H](O)[C@H](C)[C@H]1O

- IC50 (NCI-H1299): > 10 µM
- IC50 (HeLa [2]): 10 µM
Compound: CO[C@H]1/C=C/C=C/C=C/C[C@H](O)[C@H](C)[C@@H](O)/C(C)=C\CCc2c(O)c(cc3ncsc23)NC(=O)C1

- IC50 (NCI-H1299): > 10 µM
- IC50 (HeLa [2]): 10 µM
Compound: C[C@@H]1[C@@H](O)[C@H](C)[C@@H](O)CCc2cc(O)cc(c2)NC(=O)C[C@@H](O)/C=C/C=C/C=C/C[C@@H]1O

The remaining lines, values behind:

Compound: CO[C@H]1/C=C/C=C/C=C/C[C@H](OC(=O)[C@@H](C)NC(=O)C2CCCCC2)[C@H](C)C(=O)/C(C)=C\CCc2cc(O)cc(c2O)NC(=O)C1
- IC50 (HeLa [1]): > 10 µM

Compound: CO[C@H]1/C=C/C=C/C=C/C[C@H](OC(=O)[C@@H](C)NC(=O)C2CCCCC2)[C@H](C)C(=O)/C(C)=C\CCC2=CC(=O)C=C(NC(=O)C1)C2=O
- IC50 (HeLa [1]): > 10 µM

Compound: CO[C@@H]1CC(=O)N2c3cc(O)cc4c3O[C@H](/C=C/C=C/C[C@H](O)[C@H](C)[C@@H](O)/C(C)=C\CC4)[C@H]12
- IC50 (NCI-H1299): > 10 µM
- IC50 (HeLa [2]): 10 µM

Compound: CO[C@H]1/C=C/C=C/C=C/C[C@H](O)[C@H](C)[C@@H](O)/C(C)=C\CCC2=CC(=O)C=C(NC(=O)C1)C2=O
- MIC (L5178Y): > 10 µM

Compound: CO[C@@H]1CC(=O)Nc2c(O)c3cc4c2[C@H](/C=C/C=C/C[C@H](OC(=O)[C@@H](C)NC(=O)C2=CCCCC2)[C@H](C)[C@@H](O)/C(C)=C\CC3)[C@H]1O4
- IC50 (PANC-1 [4]): > 10 µM
- IC50 (SW1990): > 10 µM

Compound: COc1cc2c(O)c(c1)NC(=O)C[C@@H](OC)/C=C/C=C/C=C/C[C@H](OC(=O)[C@@H](C)NC(=O)C1CCCCC1)[C@H](C)[C@@H](O)/C(C)=C\CC2
- MIC (L5178Y): 0.17 µM (≈ 0.111 µg/mL)

Compound: CO[C@@H]1CC(=O)Nc2c(O)c3cc4c2[C@H](/C=C/C=C\C[C@H](OC(=O)[C@@H](C)NC(=O)C2CCCCC2)[C@H](C)[C@@H](O)/C(C)=C\CC3)[C@H]1O4
- IC50 (PANC-1 [4]): 6.9 µM
- IC50 (SW1990): 6.9 µM

Compound: CO[C@H]1/C=C/C=C/C=C/C[C@H](OC(=O)[C@@H](C)NC(=O)C2CCCCC2)[C@H](C)[C@@H](O)/C(C)=C\CCc2c(O)c(cc(O)c2SC)NC(=O)C1
- IC50 (HeLa [1]): 0.2 µM

Compound: CO[C@H]1/C=C/C=C/C=C/C[C@H](OC(=O)[C@@H](C)NC(=O)C2CCCCC2)[C@H](C)[C@@H](O)/C(C)=C\CCC2=CC(=O)C(SC)=C(NC(=O)C1)C2=O
- IC50 (HeLa [1]): 0.1 µM

Compound: CO[C@H]1/C=C/C=C/C=C/C[C@H](OC(=O)[C@@H](C)NC(=O)C2CCCC(O)C2)[C@H](C)[C@@H](O)/C(C)=C\CCc2cc(O)cc(c2O)NC(=O)C1 (some centres undefined)
- MIC (L5178Y): 4.89 µM (≈ 3.2 µg/mL)

Compound: CO[C@@H]1CC(=O)Nc2c(O)c3cc4c2[C@@H](/C=C/C=C/C[C@H](OC(=O)[C@@H](C)NC(=O)C2CCCCC2)[C@H](C)[C@@H](O)/C(C)=C\CC3)[C@@H]1O4
- IC50 (PANC-1 [4]): 5.81 µM
- IC50 (SW1990): 5.81 µM

Compound: CO[C@H]1/C=C/C=C/C=C/C[C@H](OC(=O)[C@@H](C)NC(=O)C2CCCCC2)[C@H](C)[C@@H](O)/C(C)=C\CCc2cc(O[C@@H]3O[C@H](CO)[C@@H](O)[C@H](O)[C@H]3O)cc(c2O)NC(=O)C1
- MIC (L5178Y): 1 µM (≈ 0.801 µg/mL)
